One assay relates to NCI-H460 cells. Put plainly: Proliferation assay NCI-H460 (Method 3). The class given is cell-based, human. Conditions: NCI-H460, 4 days, crystal violet, read-out: Inhibition of NCI-H460 cell proliferation IC50. The procedure:
(§1) Cultivated tumour cells (HeLa, human cervical tumour cells, ATCC CCL-2; NCI-H460, human non-small cell lung carcinoma cells, ATCC HTB-177; A2780, human ovarian carcinoma cells, ECACC #93112519; DU 145, hormone-independent human prostate carcinoma cells, ATCC HTB-81; HeLa-MaTu-ADR, multidrug-resistant human cervical carcinoma cells, EPO-GmbH Berlin; Caco-2, human colorectal carcinoma cells, ATCC HTB-37; B16F10, mouse melanoma cells, ATCC CRL-6475) were plated at a density of 5,000 cells/well (DU145, HeLa-MaTu-ADR), 3,000 cells/well (NCI-H460, HeLa), 2,500 cells/well (A2780), 1,500 cells/well (Caco-2), or 1,000 cells/well (B16F10) in a 96-well multititer plate in 200 μL of their respective growth medium supplemented 10% fetal calf serum. After 24 hours, the cells of one plate (zero-point plate) were stained with crystal violet (see below), while the medium of the other plates was replaced by fresh culture medium (200 μl), to which the test substances were added in various concentrations (0 μM, as well as in the range of 0.001-10 μM; the final concentration of the solvent dimethyl sulfoxide was 0.5%). The cells were incubated for 4 days in the presence of test substances. Cell proliferation was determined by staining the cells with crystal violet: the cells were fixed by adding 20 μl/measuring point of an 11% glutaric aldehyde solution for 15 minutes at room temperature. After three washing cycles of the fixed cells with water, the plates were dried at room temperature. The cells were stained by adding 100 μl/measuring point of a 0.1% crystal violet solution (pH 3.0). After three washing cycles of the stained cells with water, the plates were dried at room temperature. The dye was dissolved by adding 100 μl/measuring point of a 10% acetic acid solution. The extinction was determined by photometry at a wavelength of 595 nm. The change of cell number, in percent, was calculated by normalization of the measured values to the extinction values of the zero-point plate (=0%) and the extinction of the untreated (0 μm) cells (=100%). The IC50 values (inhibitory concentration at 50% of maximal effect) were determined by means of a 4 parameter fit.

The target of another assay is T1, CDK2/CycE (Homo sapiens, UniProt P24941).
T1 construct: GST; purchased ProQinase GmbH (Freiburg, Germany); host or cells: insect cells (Sf9)
Put plainly: CDK2/CycE kinase assay (Method 2a, TR-FRET). Conditions: 10 μM ATP. The class given is biochemical. The text has this: 2a. CDK2/CycE kinase assay:
CDK2/CycE-Inhibitory Activity of Compounds of the Present Invention was Quantified Employing the CDK2/CycE TR-FRET Assay as Described in the Following Paragraphs:
Recombinant fusion proteins of GST and human CDK2 and of GST and human CycE, expressed in insect cells (Sf9) and purified by Glutathion-Sepharose affinity chromatography, were purchased from ProQinase GmbH (Freiburg, Germany). As substrate for the kinase reaction biotinylated peptide biotin-Ttds-YISPLKSPYKISEG (C-terminus in amid form) was used which can be purchased e.g. form the company JERINI Peptide Technologies (Berlin, Germany).
For the assay 50 nl of a 100 fold concentrated solution of the test compound in DMSO was pipetted into a black low volume 384 well microtiter plate (Greiner Bio-One, Frickenhausen, Germany), 2 yl of a solution of CDK2/CycE in aqueous assay buffer [50 mM Tris/HCl pH 8.0, 10 mM MgCl2, 1.0 mM dithiothreitol, 0.1 mM sodium ortho-vanadate, 0.01% (v/v) Nonidet-P40 (Sigma)] were added and the mixture was incubated for 15 min at 22° C. to allow pre-binding of the test compounds to the enzyme before the start of the kinase reaction. […] The concentration of CDK2/CycE was adjusted depending of the activity of the enzyme lot and was chosen appropriate to have the assay in the linear range, typical concentrations were in the range of 130 ng/mL. The reaction was stopped by the addition of 5 yl of a solution of TR-FRET detection reagents (0.2 μM streptavidine-XL665 [Cisbio Bioassays, Codolet, France] and 1 nM anti-RB(pSer807/pSer811)-antibody from BD Pharmingen [#558389] and 1.2 nM LANCE EU-W1024 labeled anti-mouse IgG antibody [Perkin-Elmer, product no. AD0077]) in an aqueous EDTA-solution (100 mM EDTA, 0.2% (w/v) bovine serum albumin in 100 mM HEPES/NaOH pH 7.0).
The resulting mixture was incubated 1 h at 22° C. to allow the formation of complex between the phosphorylated biotinylated peptide and the detection reagents. Subsequently the amount of phosphorylated substrate was evaluated by measurement of the resonance energy transfer from the Eu-chelate to the streptavidine-XL. Therefore, the fluorescence emissions at 620 nm and 665 nm after excitation at 350 nm was measured in a TR-FRET reader, e.g. a Rubystar (BMG Labtechnologies, Offenburg, Germany) or a Viewlux (Perkin-Elmer). The ratio of the emissions at 665 nm and at […] was taken as the measure for the amount of phosphorylated substrate. The data were normalised (enzyme reaction without inhibitor=0% inhibition, all other assay components but no enzyme=100% inhibition).
Background: TR-FRET usually uses a lanthanide donor and a delayed reading to cut background.

Another assay has as its system B16F10 cells. Put plainly: Proliferation assay B16F10 (Method 3). It is filed as cell-based, mouse. The note with it: 4 days, crystal violet, read-out: Inhibition of Bc6F10 cell proliferation IC50. The procedure:
as §1

From patent US9884849B2, “Fluorinated benzofuranyl-pyrimidine derivatives containing a sulfoximine group” (Bayer Pharma Aktiengesellschaft, priority 2014, dated 2018) come the findings set out here.

Like-named read-outs stand apart in the source and are kept apart here.

Take `CS(=N)(=O)Cc1cccc(Nc2ncc(F)c(-c3ccc(F)c4ccoc34)n2)c1` (racemic) [Example 4, (rac)-5-Fluoro-4-(4-fluoro-1-benzofuran-7-yl)-N-{3-[(S-methylsulfonimidoyl)-methyl]phenyl}-pyrimidin-2-amine]: the IC50 in the assay with NCI-H460 cells (Homo sapiens, NCI-H460, 96 h) is 0.181 µM; against CDK2/CycE, 0.11 µM; in the assay on B16F10 cells (Mus musculus, B16-F10, 96 h) it was 0.211 µM.

On to `CS(=N)(=O)Cc1cc(F)cc(Nc2ncc(F)c(-c3ccc(F)c4ccoc34)n2)c1` (racemic) [Example 10, (rac)-5-Fluoro-4-(4-fluoro-1-benzofuran-7-yl)-N-{3-fluoro-5-[(S-methylsulfonimidoyl)-methyl]-phenyl}-pyrimidin-2-amine], for which the IC50 in the assay with NCI-H460 cells (Homo sapiens, NCI-H460, 96 h) was determined as 0.112 µM; at CDK2/CycE it was 0.05 µM; in the assay with B16F10 cells (Mus musculus, B16-F10, 96 h), 0.058 µM.

Regarding `CS(=O)(Cc1cccc(Nc2ncc(F)c(-c3ccc(F)c4ccoc34)n2)c1)=NC#N` (single isomer, unassigned) [Example 2, [(3-{[5-Fluoro-4-(4-fluoro-1-benzofuran-7-yl)pyrimidin-2-yl]amino}benzyl)(methyl)oxido-λ^6-sulfanylidene]cyanamide], the IC50 with NCI-H460 cells came to 0.117 µM; at CDK2/CycE, 0.019 µM; in the assay on B16F10 cells, 0.075 µM.

As to `CS(=O)(Cc1cc(F)cc(Nc2ncc(F)c(-c3ccc(F)c4ccoc34)n2)c1)=NC#N` (single isomer, unassigned) [Example 9, [(3-Fluoro-5-{[5-fluoro-4-(4-fluoro-1-benzofuran-7-yl)pyrimidin-2-yl]amino}benzyl)(methyl)-oxido-λ^6-sulfanylidene]cyanamide], the IC50 was determined as 0.106 µM in the assay with NCI-H460 cells, 0.088 µM at CDK2/CycE and 0.052 µM in the assay with B16F10 cells.

Consider `CS(=N)(=O)Cc1cccc(Nc2ncc(F)c(-c3ccc(F)c4ccoc34)n2)c1` (single isomer, unassigned) [Example 5, 5-Fluoro-4-(4-fluoro-1-benzofuran-7-yl)-N-{3-[(S-methylsulfonimidoyl)-methyl]-phenyl}-pyrimidin-2-amine], for which the IC50 in the assay with NCI-H460 cells (Homo sapiens, NCI-H460, 96 h) was found to be 0.343 µM; at CDK2/CycE, 0.089 µM; in the assay on B16F10 cells (Mus musculus, B16-F10, 96 h), 0.26 µM.

For the molecule `CS(=O)(Cc1cc(Nc2ncc(F)c(-c3ccc(F)c4ccoc34)n2)cc(S(F)(F)(F)(F)F)c1)=NC#N` (racemic) [Example 17, (rac)-{[3-{[5-fluoro-4-(4-fluoro-1-benzofuran-7-yl)pyrimidin-2-yl]amino}-5-(pentafluoro-λ^6-sulfanyl)benzyl](methyl)oxido-λ^6-sulfanylidene}cyanamide], the IC50 in the assay on NCI-H460 cells (Homo sapiens, NCI-H460, 96 h) was 0.192 µM; against CDK2/CycE, 0.257 µM; with B16F10 cells (Mus musculus, B16-F10, 96 h) it was 0.118 µM.

`Cc1cc(CS(C)(=O)=NC#N)cc(Nc2ncc(F)c(-c3ccc(F)c4ccoc34)n2)c1` (racemic) [Example 13, (rac)-[(3-{[5-Fluoro-4-(4-fluoro-1-benzofuran-7-yl)pyrimidin-2-yl]amino}-5-methylbenzyl)-(methyl)oxido-λ^6-sulfanylidene]cyanamide]: the IC50 in the assay on NCI-H460 cells (Homo sapiens, NCI-H460, 96 h) came to 0.118 µM; at CDK2/CycE, 0.041 µM; with B16F10 cells (Mus musculus, B16-F10, 96 h), 0.049 µM.

As for `CS(=N)(=O)Cc1cc(F)cc(Nc2ncc(F)c(-c3ccc(F)c4ccoc34)n2)c1` (single isomer, unassigned) [Example 11, 5-Fluoro-4-(4-fluoro-1-benzofuran-7-yl)-N-{3-fluoro-5-[(S-methylsulfonimidoyl)-methyl]-phenyl}-pyrimidin-2-amine], the IC50 in the assay on NCI-H460 cells (Homo sapiens, NCI-H460, 96 h) worked out at 0.083 µM; on CDK2/CycE, 0.073 µM; in the assay with B16F10 cells it was 0.045 µM.

For the molecule `CS(=N)(=O)Cc1cccc(Nc2ncc(F)c(-c3ccc(F)c4ccoc34)n2)c1` (single isomer, unassigned) [Example 6, 5-Fluoro-4-(4-fluoro-1-benzofuran-7-yl)-N-{3-[(S-methylsulfonimidoyl)-methyl]-phenyl}-pyrimidin-2-amine], the IC50 in the assay with NCI-H460 cells is 0.314 µM; against CDK2/CycE, 0.057 µM; in the assay with B16F10 cells, 0.185 µM.

As to `Cc1cc(CS(C)(=O)=NC#N)cc(Nc2ncc(F)c(-c3ccc(F)c4ccoc34)n2)c1` (single isomer, unassigned) [Example 14, [(3-{[5-Fluoro-4-(4-fluoro-1-benzofuran-7-yl)pyrimidin-2-yl]amino}-5-methylbenzyl)-(methyl)oxido-λ^6-sulfanylidene]cyanamide], the IC50 was 0.112 µM in the assay with NCI-H460 cells (Homo sapiens, NCI-H460, 96 h); 0.065 µM against CDK2/CycE; 0.069 µM in the assay with B16F10 cells (Mus musculus, B16-F10, 96 h).

With `Cc1cc(CS(C)(=O)=NC#N)cc(Nc2ncc(F)c(-c3ccc(F)c4ccoc34)n2)c1` (single isomer, unassigned) [Example 15, [(3-{[5-Fluoro-4-(4-fluoro-1-benzofuran-7-yl)pyrimidin-2-yl]amino}-5-methylbenzyl)-(methyl)oxido-λ^6-sulfanylidene]cyanamide], the IC50 turned out to be 0.121 µM with NCI-H460 cells, 0.095 µM against CDK2/CycE and 0.114 µM in the assay on B16F10 cells.

In the case of `CS(=N)(=O)Cc1cc(F)cc(Nc2ncc(F)c(-c3ccc(F)c4ccoc34)n2)c1` (single isomer, unassigned) [Example 12, 5-Fluoro-4-(4-fluoro-1-benzofuran-7-yl)-N-{3-fluoro-5-[(S-methylsulfonimidoyl)-methyl]-phenyl}-pyrimidin-2-amine], the IC50 in the assay with NCI-H460 cells came to 0.059 µM; at CDK2/CycE it was 0.048 µM; in the assay with B16F10 cells, 0.094 µM.

As to `Cc1cc(CS(C)(=N)=O)cc(Nc2ncc(F)c(-c3ccc(F)c4ccoc34)n2)c1` (racemic) [Example 16, (rac)-5-Fluoro-4-(4-fluoro-1-benzofuran-7-yl)-N-{3-methyl-5-[(S-methylsulfonimidoyl)-methyl]phenyl}pyrimidin-2-amine], the IC50 came to 0.12 µM in the assay on NCI-H460 cells (Homo sapiens, NCI-H460, 96 h); 0.08 µM against CDK2/CycE; 0.082 µM in the assay on B16F10 cells (Mus musculus, B16-F10, 96 h).

For the molecule `CS(=O)(Cc1cccc(Nc2ncc(F)c(-c3ccc(F)c4ccoc34)n2)c1)=NC#N` (single isomer, unassigned) [Example 3, [(3-{[5-Fluoro-4-(4-fluoro-1-benzofuran-7-yl)pyrimidin-2-yl]amino}benzyl)(methyl)oxido-λ^6-sulfanylidene]cyanamide], the IC50 is 0.188 µM in the assay on NCI-H460 cells (Homo sapiens, NCI-H460, 96 h); 0.045 µM against CDK2/CycE; 0.136 µM in the assay on B16F10 cells (Mus musculus, B16-F10, 96 h).
